The record followed here is ChEMBL document CHEMBL2028040, “Malaria Box”.

Data set [1] has as its system Plasmodium falciparum. Kind of data set: MMV: Inhibition of Plasmodium falciparum 3D7 (EC50). In kind it is functional, organism-based.
The subject of a further data set is Trypanosoma cruzi. Kind of data set: MMV: Inhibition of Trypanosoma cruzi (Tulahuen C4 LacZ) (Chagas in vitro). In kind it is functional, organism-based.
A further data set has as its system Leishmania infantum. Kind of data set: MMV: Inhibition of Leishmania infantum (MHOM/MA/BE/67) in vitro. In kind it is functional, organism-based.
The subject of data set [2] is Trypanosoma brucei rhodesiense. Kind of data set: MMV: Inhibition of Trypanosoma brucei rhodesiense (STIB 900) (HAT in vitro). In kind it is functional, organism-based.
Data set [3] concerns Plasmodium falciparum. Kind of data set: MMV: Inhibition of Plasmodium falciparum 3D7 at 5uM compound concentration. In kind it is functional.
Data set [4] is described as follows: MMV: Cytotoxicity against human fibroblasts (MRC-5) cells. Conditions: MRC-5 cells (human fibroblasts).
For data set [5], the system named is Plasmodium falciparum. Kind of data set: MMV: Inhibition of Plasmodium falciparum K1 (EC50). Type of data set: functional, organism-based.
The subject of data set [6] is Trypanosoma brucei brucei. Kind of data set: MMV: Inhibition of Trypanosoma brucei brucei (Squib 427) (HAT in vitro). Type of data set: functional, organism-based.

Structures are written as SMILES.

As usually defined, the EC50 is the concentration that produces a half-maximal response. A low value points to an effect from little substance. By IC50 is commonly meant the concentration that gives 50% inhibition. Read a low IC50 as greater potency in that assay. One may read the inhibition as the drop in the measured response relative to a control, in per cent. A higher inhibition goes with a strong effect. Consider `CC(C)(C)c1ccc2c(c1)CN(Cc1ccc(Cl)cc1)CO2`, for which the figures for the EC50 in the data set on Plasmodium falciparum [1] and with Plasmodium falciparum [5] were 0.362 µM and 0.107 µM, respectively. For the same compound, the 50% inhibitory concentration (IC50) in the data set on Trypanosoma cruzi was 17.7 µM; with Leishmania infantum, greater than 32 µM; in data set [2], 5.04 µM; in data set [4], greater than 32 µM; in data set [6], 10.1 µM. For the same compound, 5 µM produced 98% inhibition in the data set on Plasmodium falciparum [3].

As to `Cc1ccc(CSCc2ccc(C(=O)NC3CC3)o2)cc1`, the EC50 in the data set on Plasmodium falciparum [1] turned out to be 0.635 µM; in the data set with Plasmodium falciparum [5] it was 1.13 µM. Also, the IC50 (in the data set with Trypanosoma cruzi; in the data set on Leishmania infantum; in data set [2]; in data set [4]; in data set [6]) was greater than 32 µM throughout. In the data set on Plasmodium falciparum [3], the inhibition at 5 µM worked out at 97%.

With `CCC(O)c1ccc(Br)cc1NC(=O)c1cccc(Cl)c1` (centres undefined), the EC50 came to 0.64 µM in the data set with Plasmodium falciparum [1] and 0.419 µM in the data set on Plasmodium falciparum [5]. Besides, the concentration for half-maximal inhibition (IC50) with Trypanosoma cruzi was greater than 32 µM; in the data set on Leishmania infantum, greater than 32 µM; in data set [2], 4.54 µM; in data set [4], greater than 32 µM; in data set [6], 15.3 µM. The inhibition at 5 µM in the data set on Plasmodium falciparum [3] amounted to 97%.

`CCOC(=O)C1=C(c2ccccc2)N=c2sc(=Cc3cc(C)n(-c4ccc(F)cc4)c3C)c(=O)n2C1c1cccc(OC)c1OC` (centres undefined): the EC50 in the data set with Plasmodium falciparum [1] came out at 0.154 µM; in the data set with Plasmodium falciparum [5], 0.344 µM. Moreover, the IC50 in the data set with Trypanosoma cruzi is greater than 32 µM; in the data set on Leishmania infantum, greater than 32 µM; in data set [2], 13.3 µM; in data set [4] it was greater than 32 µM; in data set [6], greater than 32 µM. In the data set on Plasmodium falciparum [3], this compound showed an inhibition at 5 µM of 94%.

With `CCn1c(CN2CCN(Cc3ccccc3)CC2)nc2cc(NC(=O)c3cccs3)ccc21`, the EC50 with Plasmodium falciparum [1] turned out to be 0.512 µM; in the data set with Plasmodium falciparum [5] it was 0.413 µM. For the same compound, the IC50 in the data set with Trypanosoma cruzi is 13 µM; in the data set with Leishmania infantum, 22.6 µM; in data set [2] it was 15.5 µM; in data set [4], greater than 32 µM; in data set [6], greater than 32 µM. The compound also registered an inhibition at 5 µM in the data set on Plasmodium falciparum [3] of 97%.

`Clc1ccc2c(N3CCCC3)ccnc2c1`: the EC50 in the data set with Plasmodium falciparum [1] was found to be 0.944 µM; in the data set with Plasmodium falciparum [5], 1.29 µM. In addition, the IC50 in the data set on Trypanosoma cruzi was greater than 32 µM; with Leishmania infantum it was greater than 32 µM; in data set [2], 14.4 µM; in data set [4], greater than 32 µM; in data set [6], 16 µM. Besides, the inhibition at 5 µM with Plasmodium falciparum [3] came out at 97%.

Take `COc1cccc(NC(=O)[C@H](C(C)C)n2c(=O)[nH]c3ccccc3c2=O)c1`: the values for the EC50 with Plasmodium falciparum [1] and in the data set with Plasmodium falciparum [5] were 0.139 µM and 0.203 µM, respectively. The IC50 is 9.22 µM in the data set with Trypanosoma cruzi; 5.66 µM in the data set on Leishmania infantum; 1.05 µM in data set [2]; greater than 32 µM in data set [4]; 4.32 µM in data set [6]. Besides, in the data set with Plasmodium falciparum [3], 5 µM produced 99% inhibition.

In the case of `CCOC(=O)c1c(C)n(-c2ccc(Cl)cc2)c2ccc(OC(=O)C=Cc3ccccc3)cc12`, the EC50 with Plasmodium falciparum [1] is 0.215 µM; in the data set on Plasmodium falciparum [5] it was 0.659 µM. Moreover, the IC50 is 11.6 µM in the data set on Trypanosoma cruzi; greater than 32 µM in the data set on Leishmania infantum; 4.32 µM in data set [2]; 18.5 µM in data set [4]; 16.1 µM in data set [6]. This compound displayed an inhibition at 5 µM with Plasmodium falciparum [3] of 97%.

As to `Cc1ccc(C)c(Cn2c(N3CCC(C(=O)NCc4cccs4)CC3)nc3ccccc32)c1`, the EC50 stood at 1.33 µM in the data set on Plasmodium falciparum [1] and 1.67 µM in the data set on Plasmodium falciparum [5]. Besides, the IC50 with Trypanosoma cruzi is 8.64 µM; with Leishmania infantum it was 17.3 µM; in data set [2], 3.86 µM; in data set [4] it was greater than 32 µM; in data set [6], 6.9 µM. This compound yielded an inhibition at 5 µM in the data set with Plasmodium falciparum [3] of 97%.

Take `OC(CNC1CCCCC1)Cn1c2ccc(I)cc2c2cc(I)ccc21` (centres undefined): the EC50 with Plasmodium falciparum [1] turned out to be 0.466 µM; in the data set on Plasmodium falciparum [5], 0.298 µM. Also, the IC50 with Trypanosoma cruzi came to 0.902 µM; with Leishmania infantum, 1.59 µM; in data set [2], 0.784 µM; in data set [4] it was 4.03 µM; in data set [6], 0.877 µM. Also, testing at 5 µM with Plasmodium falciparum [3] gave an inhibition of 97%.

`COc1ccccc1CNC(=O)CCn1c(=O)[nH]c2ccsc2c1=O`: the 50% effective concentration (EC50) with Plasmodium falciparum [1] was found to be 0.14 µM; in the data set with Plasmodium falciparum [5], 0.15 µM. Besides, the IC50 (in the data set on Trypanosoma cruzi; in the data set on Leishmania infantum; in data set [2]; in data set [4]; in data set [6]) was greater than 32 µM throughout. This compound registered an inhibition at 5 µM in the data set with Plasmodium falciparum [3] of 67%.

As to `Cc1sc2ncnc(Sc3nc4ccccc4[nH]3)c2c1C`, the EC50 was determined as 0.615 µM in the data set with Plasmodium falciparum [1] and 0.582 µM with Plasmodium falciparum [5]. Also, the IC50 (with Trypanosoma cruzi; in the data set with Leishmania infantum; in data set [2]; in data set [4]; in data set [6]) was greater than 32 µM throughout. Moreover, the inhibition at 5 µM with Plasmodium falciparum [3] is 100%.

With `O=C(Nc1ccc(C23CC4CC(CC(c5ccccc5)(C4)C2)C3)cc1)c1cccs1`, the EC50 with Plasmodium falciparum [1] was found to be 0.826 µM; in the data set on Plasmodium falciparum [5], 1.27 µM. In addition, the IC50 (with Trypanosoma cruzi; with Leishmania infantum; in data set [2]; in data set [4]; in data set [6]) was greater than 32 µM throughout. Besides, at 5 µM the inhibition in the data set with Plasmodium falciparum [3] was 96%.

Consider `CCN(Cc1ccccc1)C1CCN(Cc2cc(Br)ccc2O)CC1`, for which the concentration giving a half-maximal response (EC50) with Plasmodium falciparum [1] turned out to be 0.625 µM; in the data set on Plasmodium falciparum [5] it was 0.187 µM. The IC50 in the data set with Trypanosoma cruzi is 11.8 µM; in the data set on Leishmania infantum it was 16 µM; in data set [2], 11.4 µM; in data set [4], greater than 32 µM; in data set [6] it was 10.9 µM. Further, in the data set on Plasmodium falciparum [3], the inhibition at 5 µM was 97%.

Take `Cc1ccc(Nc2nc(-c3ccccn3)cs2)cc1`: the EC50 in the data set with Plasmodium falciparum [1] was found to be 0.35 µM; with Plasmodium falciparum [5], 0.0822 µM. For the same compound, the IC50 turned out to be 0.281 µM with Trypanosoma cruzi, 5.38 µM in the data set with Leishmania infantum, 14.8 µM in data set [2] and 13.4 µM in data set [6]. The compound also came in with an inhibition at 5 µM in the data set on Plasmodium falciparum [3] of 79%.

As to `O=C(Nc1nc(-c2ccccn2)cs1)c1ccccc1Br`, the EC50 in the data set on Plasmodium falciparum [1] came to 1.36 µM; in the data set with Plasmodium falciparum [5] it was 1.58 µM. Moreover, the IC50 was 0.26 µM in the data set on Trypanosoma cruzi, 1.59 µM with Leishmania infantum, 0.376 µM in data set [2] and 1.04 µM in data set [6]. 5 µM produced 97% inhibition in the data set with Plasmodium falciparum [3].

Turning to `COc1ccc2nc(N)nc(C)c2c1`, the IC50 was greater than 32 µM in the data set on Trypanosoma cruzi; greater than 32 µM with Leishmania infantum; 16.3 µM in data set [2]; greater than 32 µM in data set [4]; 18.4 µM in data set [6]. The compound also returned an inhibition at 5 µM with Plasmodium falciparum [3] of 63%. In addition, in the data set on Plasmodium falciparum [5], it took 0.3 µM to reach a half-maximal effect (EC50).

In the case of `CCC(C)NCC(O)(c1ccc(Cl)cc1)c1ccc(Cl)cc1` (centres undefined), the IC50 with Trypanosoma cruzi is 15 µM; with Leishmania infantum, 16 µM; in data set [2], 4.03 µM; in data set [4] it was greater than 32 µM; in data set [6] it was 4.1 µM. In the data set on Plasmodium falciparum [3], this compound came in with an inhibition at 5 µM of 98%. Further, the EC50 with Plasmodium falciparum [5] was 0.398 µM.

As to `CC(O)(c1ccc(Cl)cc1)C(CN1CCCCC1)c1ccccc1` (centres undefined), the IC50 is greater than 32 µM with Trypanosoma cruzi; greater than 32 µM in the data set with Leishmania infantum; 14.8 µM in data set [2]; greater than 32 µM in data set [4]; 16.1 µM in data set [6]. This compound gave an inhibition at 5 µM with Plasmodium falciparum [3] of 94%. In the data set with Plasmodium falciparum [5], this compound returned an EC50 of 0.576 µM.

As to `COc1ccc(CN2CCCC(C(=O)c3ccc(C(F)(F)F)cc3)C2)c(O)c1` (centres undefined), the IC50 (with Trypanosoma cruzi; with Leishmania infantum; in data set [2]; in data set [4]; in data set [6]) was greater than 32 µM each time. Besides, in the data set with Plasmodium falciparum [3], the inhibition at 5 µM came out at 97%. The same compound came in with an EC50 with Plasmodium falciparum [5] of 0.728 µM.
